Source: the NIST ThermoML archive (doi:10.1016/j.jct.2011.12.035)
± gives the expanded uncertainty stated by the source.

Experiment: xn = mol fraction of the nth substance listed
Details: Gas, Buoyancy - hydrostatic balance with magnetic suspension - one sinker

`N#N` [nitrogen] + O=C=O gave a mass density (250.01 K, 994.48 kPa, x2 = 0.2) of 15.21 ± 0.037 kg/m3, a mass density (250.02 K, 1979.3 kPa, x2 = 0.2) of 30.827 ± 0.075 kg/m3 and a mass density (250.02 K, 4032.4 kPa, x2 = 0.2) of 65.204 ± 0.16 kg/m3. It also gave a mass density (250.02 K, 6013.2 kPa, x2 = 0.2) of 100.543 ± 0.24 kg/m3, a mass density (250.02 K, 8000.9 kPa, x2 = 0.2) of 137.785 ± 0.33 kg/m3 and a mass density (250.02 K, 10004 kPa, x2 = 0.2) of 176.401 ± 0.43 kg/m3. It also gave a mass density (250.02 K, 12010 kPa, x2 = 0.2) of 215.101 ± 0.52 kg/m3, a mass density (250.02 K, 14018 kPa, x2 = 0.2) of 252.741 ± 0.61 kg/m3 and a mass density (250.02 K, 16027 kPa, x2 = 0.2) of 288.385 ± 0.7 kg/m3. For the same molecule, the mass density (250.02 K, 18039 kPa, x2 = 0.2) was 321.449 ± 0.78 kg/m3, the mass density (250.02 K, 19633 kPa, x2 = 0.2) was 345.629 ± 0.83 kg/m3 and the mass density (250.04 K, 2996.3 kPa, x2 = 0.2) was 47.559 ± 0.12 kg/m3. It also gave a mass density (250.04 K, 4997.5 kPa, x2 = 0.2) of 82.144 ± 0.2 kg/m3, a mass density (250.05 K, 488.24 kPa, x2 = 0.2) of 7.397 ± 0.018 kg/m3 and a mass density (250.05 K, 997.91 kPa, x2 = 0.2) of 15.262 ± 0.037 kg/m3. The mass density (250.05 K, 6997.7 kPa, x2 = 0.2) was 118.767 ± 0.29 kg/m3, the mass density (250.05 K, 8998.8 kPa, x2 = 0.2) was 156.893 ± 0.38 kg/m3 and the mass density (250.05 K, 11001 kPa, x2 = 0.2) was 195.63 ± 0.47 kg/m3. For the same molecule, the mass density (250.05 K, 13005 kPa, x2 = 0.2) was 233.864 ± 0.57 kg/m3, the mass density (250.05 K, 15008 kPa, x2 = 0.2) was 270.511 ± 0.65 kg/m3 and the mass density (250.05 K, 17012 kPa, x2 = 0.2) was 304.796 ± 0.74 kg/m3. It also gave a mass density (250.05 K, 17639 kPa, x2 = 0.2) of 314.981 ± 0.76 kg/m3, a mass density (274.99 K, 998.23 kPa, x2 = 0.2) of 13.8 ± 0.034 kg/m3 and a mass density (274.99 K, 1987.8 kPa, x2 = 0.2) of 27.804 ± 0.067 kg/m3. The mass density (274.99 K, 3995.6 kPa, x2 = 0.2) was 57.18 ± 0.14 kg/m3, the mass density (274.99 K, 5997.2 kPa, x2 = 0.2) was 87.563 ± 0.21 kg/m3 and the mass density (274.99 K, 7998.9 kPa, x2 = 0.2) was 118.772 ± 0.29 kg/m3. The mass density (274.99 K, 10000 kPa, x2 = 0.2) was 150.404 ± 0.36 kg/m3, the mass density (274.99 K, 12005 kPa, x2 = 0.2) was 182.017 ± 0.44 kg/m3 and the mass density (274.99 K, 14006 kPa, x2 = 0.2) was 213.01 ± 0.52 kg/m3. The mass density (274.99 K, 16009 kPa, x2 = 0.2) was 243.011 ± 0.59 kg/m3, the mass density (274.99 K, 18043 kPa, x2 = 0.2) was 272.044 ± 0.66 kg/m3 and the mass density (274.99 K, 19430 kPa, x2 = 0.2) was 290.888 ± 0.71 kg/m3. For the same molecule, the mass density (275.02 K, 996.58 kPa, x2 = 0.501) was 16.162 ± 0.039 kg/m3, the mass density (275.02 K, 1993.3 kPa, x2 = 0.501) was 33.323 ± 0.081 kg/m3 and the mass density (275.02 K, 2996.6 kPa, x2 = 0.501) was 51.754 ± 0.13 kg/m3. It also gave a mass density (275.02 K, 3997.4 kPa, x2 = 0.501) of 71.374 ± 0.17 kg/m3, a mass density (275.02 K, 4998.7 kPa, x2 = 0.501) of 92.411 ± 0.23 kg/m3 and a mass density (275.02 K, 5999.5 kPa, x2 = 0.501) of 114.98 ± 0.28 kg/m3. The mass density (275.02 K, 7003.4 kPa, x2 = 0.501) was 139.278 ± 0.34 kg/m3, the mass density (275.02 K, 8006 kPa, x2 = 0.501) was 165.225 ± 0.4 kg/m3 and the mass density (275.02 K, 9125.5 kPa, x2 = 0.501) was 196.081 ± 0.48 kg/m3. It also gave a mass density (275.02 K, 10029 kPa, x2 = 0.501) of 222.169 ± 0.54 kg/m3, a mass density (275.02 K, 11018 kPa, x2 = 0.501) of 251.523 ± 0.61 kg/m3 and a mass density (275.02 K, 12025 kPa, x2 = 0.501) of 281.541 ± 0.69 kg/m3. It also gave a mass density (275.02 K, 13025 kPa, x2 = 0.501) of 310.916 ± 0.76 kg/m3, a mass density (275.03 K, 14032 kPa, x2 = 0.501) of 339.405 ± 0.82 kg/m3 and a mass density (275.03 K, 15032 kPa, x2 = 0.501) of 366.266 ± 0.89 kg/m3. The mass density (275.03 K, 15926 kPa, x2 = 0.501) was 388.806 ± 0.94 kg/m3, the mass density (275.04 K, 17027 kPa, x2 = 0.501) was 414.634 ± 1 kg/m3 and the mass density (275.04 K, 17563 kPa, x2 = 0.501) was 426.437 ± 1 kg/m3. The mass density (299.95 K, 2996.2 kPa, x2 = 0.2) was 38.386 ± 0.093 kg/m3, the mass density (299.95 K, 4996.3 kPa, x2 = 0.2) was 64.833 ± 0.16 kg/m3 and the mass density (299.95 K, 6997.1 kPa, x2 = 0.2) was 91.756 ± 0.22 kg/m3. For the same molecule, the mass density (299.95 K, 8997.6 kPa, x2 = 0.2) was 118.906 ± 0.29 kg/m3, the mass density (299.95 K, 11032 kPa, x2 = 0.2) was 146.5 ± 0.35 kg/m3 and the mass density (299.95 K, 13037 kPa, x2 = 0.2) was 173.362 ± 0.42 kg/m3. The mass density (299.95 K, 15002 kPa, x2 = 0.2) was 199.149 ± 0.48 kg/m3, the mass density (299.95 K, 17077 kPa, x2 = 0.2) was 225.549 ± 0.55 kg/m3 and the mass density (299.95 K, 18151 kPa, x2 = 0.2) was 238.85 ± 0.58 kg/m3. It also gave a mass density (299.96 K, 492.88 kPa, x2 = 0.2) of 6.193 ± 0.015 kg/m3, a mass density (299.96 K, 984.74 kPa, x2 = 0.2) of 12.423 ± 0.03 kg/m3 and a mass density (299.96 K, 995.87 kPa, x2 = 0.501) of 14.686 ± 0.036 kg/m3. The mass density (299.96 K, 15998 kPa, x2 = 0.501) was 308.658 ± 0.75 kg/m3, the mass density (299.97 K, 1995.1 kPa, x2 = 0.501) was 30.061 ± 0.073 kg/m3 and the mass density (299.97 K, 2998.8 kPa, x2 = 0.501) was 46.195 ± 0.11 kg/m3. It also gave a mass density (299.97 K, 4000.2 kPa, x2 = 0.501) of 62.993 ± 0.15 kg/m3, a mass density (299.97 K, 5015.8 kPa, x2 = 0.501) of 80.785 ± 0.2 kg/m3 and a mass density (299.97 K, 6023.7 kPa, x2 = 0.501) of 99.216 ± 0.24 kg/m3. The mass density (299.97 K, 7004.9 kPa, x2 = 0.501) was 117.9 ± 0.29 kg/m3, the mass density (299.97 K, 8009.1 kPa, x2 = 0.501) was 137.74 ± 0.34 kg/m3 and the mass density (299.97 K, 9014.3 kPa, x2 = 0.501) was 158.299 ± 0.39 kg/m3. The mass density (299.97 K, 9993.3 kPa, x2 = 0.501) was 178.967 ± 0.43 kg/m3, the mass density (299.97 K, 9996.5 kPa, x2 = 0.501) was 178.959 ± 0.43 kg/m3 and the mass density (299.97 K, 10996 kPa, x2 = 0.501) was 200.469 ± 0.49 kg/m3. For the same molecule, the mass density (299.97 K, 11995 kPa, x2 = 0.501) was 222.215 ± 0.54 kg/m3, the mass density (299.97 K, 12998 kPa, x2 = 0.501) was 244.208 ± 0.59 kg/m3 and the mass density (299.97 K, 13996 kPa, x2 = 0.501) was 266 ± 0.65 kg/m3. For the same molecule, the mass density (299.97 K, 14996 kPa, x2 = 0.501) was 287.528 ± 0.7 kg/m3, the mass density (299.97 K, 16996 kPa, x2 = 0.501) was 329.04 ± 0.8 kg/m3 and the mass density (299.97 K, 17997 kPa, x2 = 0.501) was 348.774 ± 0.84 kg/m3. The mass density (299.97 K, 19020 kPa, x2 = 0.501) was 368.091 ± 0.89 kg/m3, the mass density (299.97 K, 19970 kPa, x2 = 0.501) was 385.259 ± 0.93 kg/m3 and the mass density (324.96 K, 1994 kPa, x2 = 0.2) was 23.265 ± 0.056 kg/m3. The mass density (324.96 K, 1994.1 kPa, x2 = 0.2) was 23.265 ± 0.056 kg/m3, the mass density (324.96 K, 3976.6 kPa, x2 = 0.2) was 46.775 ± 0.11 kg/m3 and the mass density (324.96 K, 5997.1 kPa, x2 = 0.2) was 70.986 ± 0.17 kg/m3. It also gave a mass density (324.96 K, 7997.5 kPa, x2 = 0.2) of 95.062 ± 0.23 kg/m3, a mass density (324.96 K, 9999.3 kPa, x2 = 0.2) of 119.106 ± 0.29 kg/m3 and a mass density (324.96 K, 12001 kPa, x2 = 0.2) of 142.924 ± 0.35 kg/m3. It also gave a mass density (324.96 K, 14002 kPa, x2 = 0.2) of 166.343 ± 0.4 kg/m3, a mass density (324.96 K, 16004 kPa, x2 = 0.2) of 189.249 ± 0.46 kg/m3 and a mass density (324.96 K, 18002 kPa, x2 = 0.2) of 211.461 ± 0.51 kg/m3. It also gave a mass density (324.96 K, 19964 kPa, x2 = 0.2) of 232.536 ± 0.56 kg/m3, a mass density (324.98 K, 974.07 kPa, x2 = 0.501) of 13.176 ± 0.035 kg/m3 and a mass density (324.98 K, 1991.5 kPa, x2 = 0.501) of 27.367 ± 0.066 kg/m3. The mass density (324.98 K, 2996.4 kPa, x2 = 0.501) was 41.83 ± 0.1 kg/m3, the mass density (324.98 K, 3995.3 kPa, x2 = 0.501) was 56.615 ± 0.14 kg/m3 and the mass density (324.98 K, 4997.2 kPa, x2 = 0.501) was 71.872 ± 0.17 kg/m3. The mass density (324.98 K, 5995.1 kPa, x2 = 0.501) was 87.485 ± 0.21 kg/m3, the mass density (324.98 K, 6998.1 kPa, x2 = 0.501) was 103.583 ± 0.25 kg/m3 and the mass density (324.98 K, 7998.2 kPa, x2 = 0.501) was 120.002 ± 0.29 kg/m3. The mass density (324.98 K, 9001.9 kPa, x2 = 0.501) was 136.826 ± 0.33 kg/m3.
